Laboratory results published in ChEMBL document CHEMBL6114960, “Discovery of First-in-Class FXR and HSD17B13 Dual Modulator for the Treatment of Metabolic Dysfunction-Associated Fatty Liver Disease” (J Med Chem, 2025).

Columns and labels:
Bile acid receptor [1] = target: T1, Bile acid receptor (Homo sapiens, UniProt Q96RI1); test: Agonist activity at FXR-LBD (unknown origin) incubated for 3 hrs in presence of fluorescein-coactivator peptide by TR-FRET analysis
T1 sequence (Q96RI1 whole entry): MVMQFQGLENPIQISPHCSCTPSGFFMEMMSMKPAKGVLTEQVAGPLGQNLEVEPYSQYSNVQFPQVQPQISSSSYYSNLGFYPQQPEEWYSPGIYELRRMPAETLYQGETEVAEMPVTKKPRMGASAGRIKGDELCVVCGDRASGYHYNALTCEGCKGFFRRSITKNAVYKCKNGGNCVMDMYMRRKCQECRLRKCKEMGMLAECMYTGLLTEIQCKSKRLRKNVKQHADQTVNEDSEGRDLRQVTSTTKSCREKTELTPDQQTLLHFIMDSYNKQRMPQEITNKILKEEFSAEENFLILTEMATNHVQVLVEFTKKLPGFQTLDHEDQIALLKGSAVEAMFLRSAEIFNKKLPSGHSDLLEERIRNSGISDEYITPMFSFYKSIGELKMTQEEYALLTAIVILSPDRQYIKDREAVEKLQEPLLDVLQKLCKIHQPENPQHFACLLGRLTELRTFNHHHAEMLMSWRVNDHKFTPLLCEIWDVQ

Bile acid receptor [2] = target: T1, Bile acid receptor; test: Agonist activity at FXR (unknown origin) transfected in human HepG2 cells incubated for 24 hrs by luciferase assay; format: cell-based
[3] = target: T2, 17-beta-hydroxysteroid dehydrogenase 13 (Homo sapiens, UniProt Q7Z5P4)
T2 sequence (Q7Z5P4 whole entry): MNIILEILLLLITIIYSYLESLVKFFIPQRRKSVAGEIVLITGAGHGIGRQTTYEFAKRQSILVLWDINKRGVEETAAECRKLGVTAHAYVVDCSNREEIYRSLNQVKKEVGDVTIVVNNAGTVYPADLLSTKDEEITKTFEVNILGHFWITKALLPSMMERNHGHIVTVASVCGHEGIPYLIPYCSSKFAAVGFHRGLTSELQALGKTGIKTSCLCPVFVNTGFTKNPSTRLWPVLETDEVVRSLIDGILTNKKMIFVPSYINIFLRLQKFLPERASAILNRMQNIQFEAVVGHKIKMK
Description: Inhibition of HSD17B13 (unknown origin) using beta-estradiol and FAC-NAD+ as substrate incubated for 2 hrs by NAD(P)H-Glo detection reagent based luminescence assay

Bile acid receptor [4] = target: T1, Bile acid receptor; test: Agonist activity at FXR (unknown origin)
Mus musculus = test: Anti-MASH activity in western diet and CCl4 co-induced male C57BL/6 mouse model assessed as NAFLD activity score at 20 mg/kg, po administered with high fat diet and sugar water for 12 weeks with subsequent CCl4 administration three times a week and measured after 4 weeks of compound administration via gavage starting from 9th week (Rvb > 6); format: functional

Structure (SMILES) | EC50 (Bile acid receptor [1]) [nM] | EC50 (Bile acid receptor [2]) [nM] | further results
CC(C)NC(=O)c1ccc(-c2ccc(OCc3c(-c4c(Cl)cccc4Cl)noc3C3CC3)cc2)cc1 | 974 | – | –
Cc1cc(OCc2c(-c3c(Cl)cccc3Cl)noc2C2CC2)ccc1-c1ccc(C(=O)O)cc1 | 134 | 301 | –
CN(C)C(=O)c1ccc(-c2ccc(OCc3c(-c4c(Cl)cccc4Cl)noc3C3CC3)cc2)cc1 | 482 | – | –
O=C(O)c1cccc2nc(-c3ccc(OCc4c(-c5c(Cl)cccc5Cl)noc4C4CC4)cc3)cn12 | 121 | 186 | IC50 [3]: 850 nM
O=C(O)c1ccc(-c2ccc(OCc3c(-c4c(Cl)cccc4Cl)noc3C3CC3)cc2)nc1 | 129 | 329 | –
O=C(O)c1ccc(-c2ccc(OCc3c(-c4c(Cl)cccc4Cl)noc3C3CC3)c(F)c2)cc1 | 143 | 475 | –
CN(C)C(=O)c1cccc(-c2ccc(OCc3c(-c4c(Cl)cccc4Cl)noc3C3CC3)cc2)c1 | 209 | 493 | –
CC(C)c1onc(-c2ccccc2C(F)(F)F)c1COc1ccc(-c2ccc(C(=O)O)cc2)cc1 | 232 | 525 | –
O=C(O)c1ccc(-c2ccc(OCc3c(-c4c(Cl)cccc4Cl)noc3C3CC3)cc2)cc1Cl | 193 | 239 | –
O=C(O)C1=CC2NC(c3ccc(OCc4c(-c5c(Cl)cccc5Cl)noc4C4CC4)cc3)=NC2C=C1 (stereo unspecified) | – | – | IC50 [3]: 4350 nM
O=C(NCC1CC1)c1cccc(-c2ccc(OCc3c(-c4c(Cl)cccc4Cl)noc3C3CC3)cc2)c1 | > 10000 | – | –
CC(C)(C)NC(=O)c1cccc(-c2ccc(OCc3c(-c4c(Cl)cccc4Cl)noc3C3CC3)cc2)c1 | > 10000 | – | –
O=C(O)c1c(F)cc(-c2ccc(OCc3c(-c4c(Cl)cccc4Cl)noc3C3CC3)cc2)cc1F | 531 | – | –
O=C(O)c1ccc(-c2ccc(OCc3c(-c4c(Cl)cccc4Cl)noc3C3CC3)cc2)c(C(F)(F)F)c1 | 119 | 288 | –
CNC(=O)c1ccc(-c2ccc(OCc3c(-c4c(Cl)cccc4Cl)noc3C3CC3)cc2)cc1 | 146 | 288 | –
O=C(O)c1ccc(-c2ccc(OCc3c(-c4c(Cl)cccc4Cl)noc3C3CC3)cc2)s1 | 271 | 491 | –
OCC1(c2cccc(-c3ccc(OCc4c(-c5c(Cl)cccc5Cl)noc4C4CC4)cc3)c2)CC1 | > 10000 | – | –
O=C(O)c1ccc(-c2ccc(OCc3c(-c4c(Cl)cccc4Cl)noc3C3CC3)cc2)c(F)c1 | 114 | 282 | –
NC(=O)c1ccc(-c2ccc(OCc3c(-c4c(Cl)cccc4Cl)noc3C3CC3)cc2)cc1 | 145 | 372 | –
O=C(c1cccc(-c2ccc(OCc3c(-c4c(Cl)cccc4Cl)noc3C3CC3)cc2)c1)N1CCOCC1 | > 10000 | – | –
Cc1cc(OCc2c(-c3c(Cl)cccc3Cl)noc2C2CC2)cc(C)c1-c1ccc(C(=O)O)cc1 | 85 | 261 | –
O=C(O)c1ccc(-c2ccc(OCc3c(-c4c(Cl)cccc4Cl)noc3C3CC3)cn2)cc1 | 697 | – | –
O=C(NC1CC1)c1cccc(-c2ccc(OCc3c(-c4c(Cl)cccc4Cl)noc3C3CC3)cc2)c1 | 579 | – | –
OCCOc1ccc(-c2ccc(OCc3c(-c4c(Cl)cccc4Cl)noc3C3CC3)cc2)cc1 | > 10000 | – | –
O=C(O)c1ccnc(N2CC(O)(c3ccc(OCc4c(-c5c(Cl)cccc5Cl)noc4C4CC4)cc3Cl)C2)c1 [CILOFEXOR] | – | – | EC50 (Bile acid receptor [4]): 58 nM
CC[C@H]1[C@@H](O)[C@@H]2[C@H](CC[C@]3(C)[C@@H]([C@H](C)CCC(=O)O)CC[C@@H]23)[C@@]2(C)CC[C@@H](O)C[C@@H]12 [OBETICHOLIC ACID] | – | – | IC50 [3]: > 10000 nM; Activity (Mus musculus): 3.5
